The conditions of test [1]: Patent Document 1; cited from earlier work.
Test [2] relates to SV40 immortalized human corneal epithelial cells (HCE-T). The experiment in a line: Pharmacological Test 2: treatment before UV-B irradiation (120 mJ/cm^2), cell death inhibition ratio. It counts as cell-based. Conditions: for Cell death inhibition ratio: average N=3. As for the experimental part: A test similar to Pharmacological test 1 was conducted with the irradiation condition of UV-B varied.
After conducting operations similar to those in Pharmacological test 1, the 10% FBS-containing DMEM/F-12 culture medium was replaced by PBS containing 0.05% (w/v) flavin adenine dinucleotide disodium salt, PBS containing 0.05% (w/v) sodium hyaluronate, PBS containing 0.05% (w/v) sodium hyaluronate and 0.05% (w/v) flavin adenine dinucleotide disodium salt, PBS containing 0.3% (w/v) sodium hyaluronate, PBS containing 0.3% (w/v) sodium hyaluronate and 0.05% (w/v) flavin adenine dinucleotide disodium salt, or PBS not containing a test substance (hereinafter, referred to as “0.05% FAD group”, “0.05% HA group”, “0.05% HA/0.05% FAD group”, “0.3% HA group”, “0.3% HA/0.05% FAD group” or “base group”, respectively). Then, corneal epithelial cells were irradiated with UV-B (120 mJ/cm^2) for about 2 minutes, and again operations similar to those in Pharmacological test 1 were conducted. Then, according to the expression 1, the viability was calculated, and further, according to the following expression 2, the cell death inhibition ratio of each group was calculated.
Cell death inhibition ratio (%)=Viability of each group−Viability of base group [Expression 2]

Test [3] deals with SV40 immortalized human corneal epithelial cells. The experiment in a line: Pharmacological Test 3: treatment after UV-B irradiation (80 mJ/cm^2), viability of corneal epithelial cells. It counts as cell-based. Conditions: treated 60 minutes after UV-B irradiation (80 mJ/cm^2, about 1 minute); 0.1% (w/v) sodium hyaluronate, 0.05% (w/v) flavin adenine dinucleotide disodium salt, or both; FIG. 2. As for the experimental part: Whether or not the decline of the number of living cells by ultraviolet irradiation is inhibited when corneal epithelial cells are treated with the present agent after ultraviolet (UV-B) irradiation was evaluated.
SV40 immortalized human corneal epithelial cells were inoculated in a 96-well plate (1×10^4 cells/well), and cultured in a 10% FBS-containing DMEM/F-12 culture medium for a day. On the next day, corneal epithelial cells were irradiated with UV-B (80 mJ/cm^2) for about 1 minute. Then the 10% FBS-containing DMEM/F-12 culture medium was replaced by PBS containing 0.1% (w/v) sodium hyaluronate, PBS containing 0.05% (w/v) flavin adenine dinucleotide disodium salt, PBS containing 0.1% (w/v) sodium hyaluronate and 0.05% (w/v) flavin adenine dinucleotide disodium salt, or PBS not containing a test substance, and then cultured at 37° C. for 60 minutes (hereinafter, referred to as “0.1% HA group”, “0.05% FAD group”, “0.1% HA/0.05% FAD group” or “base group”, respectively). Then, after replacing the culture medium of each group by a 10% FBS-containing DMEM/F-12 culture medium, the cells were cultured at 37° C. for 24 hours, and then the number of living cells was determined by using Cell Titer 96 (registered trade name) AQueous One Solution Cell Proliferation Assay, and the viability was calculated according to the following expression 3. […]

The test system is the same in test [4]. Description: Pharmacological Test 4: treatment before exposure to dryness, viability of corneal epithelial cells. The class given is cell-based. Conditions: treated 60 minutes before exposure to dryness for 15 minutes; 0.1% HA, 0.05% FAD or 0.1% HA/0.05% FAD in D-MEM/F12; FIG. 3. As for the experimental part: Whether or not the decline of the number of living cells by dryness is inhibited when corneal epithelial cells are treated with the present agent before exposure to dryness was evaluated.
SV40 immortalized human corneal epithelial cells were inoculated in a 96-well plate (1×10^4 cells/well), and cultured in a 10% FBS-containing DMEM/F-12 culture medium for a day. On the next day, the culture medium was replaced by a D-MEM/F12 culture medium containing 0.1% (w/v) sodium hyaluronate, a D-MEM/F12 culture medium containing 0.05% (w/v) flavin adenine dinucleotide disodium salt, a D-MEM/F12 culture medium containing 0.1% (w/v) sodium hyaluronate and 0.05% (w/v) flavin adenine dinucleotide disodium salt, or a D-MEM/F12 culture medium not containing a test substance, and then cells were cultured at 37° C. for 60 minutes (hereinafter, referred to as “0.1% HA group”, “0.05% FAD group”, “0.1% HA/0.05% FAD group” or “base group”, respectively). After culturing, the culture medium of each group was removed, and then cells were exposed to dryness for 15 minutes. After exposure to dryness, the number of living cells was determined by using Cell Titer 96 (registered trade name) AQueous One Solution Cell Proliferation Assay, and the viability was calculated according to the following expression 4. […]

Test [5] deals with corneal epithelial cells. Conditions: Non-Patent Document 3; cited from earlier work.
Test [6] has as its system corneal epithelial cells. Conditions: Non-Patent Document 1; cited from earlier work.
The mark [7] stands for this setting: single substance 0.05% (w/v) in PBS before UV-B (120 mJ/cm^2, about 2 minutes).

Where a name gives a salt, the structure may show the parent alone.

`Cc1cc2nc3c(=O)[nH]c(=O)nc-3n(C[C@H](O)[C@H](O)[C@H](O)COP(=O)(O)OP(=O)(O)OC[C@H]3O[C@@H](n4cnc5c(N)ncnc54)C(O)C3O)c2cc1C` (stereo partly drawn) [FAD or the like, flavin adenine dinucleotide (FAD) or a salt thereof]: the lacrimal secretagogue action entry in test [1] is on record as “has a lacrimal secretagogue action”.

As for `Cc1cc2nc3c(=O)[nH]c(=O)nc-3n(C[C@H](O)[C@H](O)[C@H](O)COP(=O)([O-])OP(=O)([O-])OC[C@H]3O[C@@H](n4cnc5c(N)ncnc54)[C@H](O)[C@@H]3O)c2cc1C.[Na+].[Na+]` [FAD, flavin adenine dinucleotide disodium salt], the “Cell death inhibition ratio” value in test [2] (setting [7]) was determined as 48.78%. Further, in test [3], the “inhibition of corneal epithelial cell death (in words)” value is recorded as “little observed”. For the same compound, the “action of inhibiting corneal epithelial cell death (in words)” value in test [4] is “the action was not observed”.

As for sodium hyaluronate [HA], the “Cell death inhibition ratio” value in test [2] (setting [7]) is on record as −0.17%; in test [2] (single substance 0.3% (w/v) in PBS before UV-B (120 mJ/cm^2, about 2 minutes)), 4.17%. Further, the “inhibition of corneal epithelial cell death by UV-B irradiation (in words)” value in test [2] (treatment before UV-B irradiation (120 mJ/cm^2, about 2 minutes)) is reported as “little inhibit”. The “inhibition of corneal epithelial cell death (in words)” value in test [3] is given as “little observed”. Further, the “action of inhibiting corneal epithelial cell death (in words)” value in test [4] was “an action of inhibiting corneal epithelial cell death was observed”.

For “hyaluronic acid or a salt thereof [hyaluronic acid or the like]”, in the test on corneal epithelial cells [5], the “cell death of corneal epithelial cells induced by dryness” value is reported as “does not inhibit”. Besides, in the test with corneal epithelial cells [6], the “Caspase-3/7 activation by UV-B irradiation” value is “inhibits” and the “increase in production of active oxygen by corneal epithelial cells by UV-B irradiation” value is “inhibits”.
